Data reported in paper PMC12057341, “In vitro pharmacokinetic/pharmacodynamic modeling of the effect of mucin on polymyxin B activity against Acinetobacter baumannii” (Antimicrobial Agents and Chemotherapy, 2025).
Entries after “also recorded” stand apart in the source; their conditions may differ. Where a SMILES comes first, the peptide text is derived from it. Bridges are numbered along the chain shown (N, C = ends). [ ]: non-standard residue; d: D form. The star is where a group is joined. X1 = CC[C@H](C)CCCCC(=O)*; Dab = NCC[C@H](N)C(=O)O

Key:
[1] = system: Acinetobacter baumannii AB122-D12; experiment: Time-kill experiments and PK/PD modeling, AB122-D12; assay type: cell-based
Experimental: Bacteria were cultured overnight under shaking (150–170 rpm) in CAMHB at 35°C. The bacterial suspension was then diluted to 1/50 and incubated at 35°C under shaking until an optical density of 0.3 (corresponding to 1.10^8 CFU/ml of bacteria in the exponential growth phase) was achieved. This bacterial suspension was then diluted in order to obtain a starting inoculum at 1.10^6 CFU/mL. TK experiments were performed in CAMHB in the absence and presence of 1% mucin. PMB concentrations varied from 0.5 mg/L to 128 mg/L for AB121-D0 and 8 mg/L to 512 mg/L for AB122-D12. Drug-free CAMHB was used as bacterial growth control for each strain. Tubes were incubated at 35°C under shaking (150–170 rpm), and aliquots were sampled over time at T0h, T1h, T3h, T6h, T10h, T24h, and T30h. Samples were serially diluted in NaCl 0.9% and plated onto Mueller-Hinton agar supplemented with 1% activated charcoal (to prevent PMB carry-over effect). Bacteria were counted after overnight incubation at 35°C. The limit of quantification was fixed based on CLSI guidelines ([38]) and was equal to 400 CFU/ml (i.e. 2.6 log10 CFU/mL). Experiments were conducted in triplicate for both strains.
Bacterial counts obtained from TK experiments without mucin were first modeled using NONMEM 7.4 (ICON plc, Dublin, Ireland) with the Laplacian algorithm and the M3 method for handling observations below the limit of quantification ([39]). PMB was assumed to be stable over the course of the experiment as previously shown ([40]). A previously described model with hetero-resistance ([41]), that is, two bacterial subpopulations, one susceptible to PMB (S) and one resistant (R), was used to describe the time course of bacterial counts for the two A. baumannii strains (Fig. 1). Different functions were tested to characterize the PMB killing effect (see supplemental material for model building).
Then, TK data in the presence of mucin were included in the data set and PMB total concentrations were corrected for mucin binding using equation 1, with unbound PMB concentrations driving the antibacterial effect. […]

[2] = system: Acinetobacter baumannii AB121-D0; experiment: PMB MIC in CAMHB with or without 1% mucin, AB121-D0; assay type: cell-based
Experimental: Two clinical MDR strains of A. baumannii, isolated from a patient before (AB121-D0) and 12 days after treatment with colistin (AB122-D12), were used during this study ([32]). AB122-D12 carries a 10 amino acid insertion into the pmrB gene, known to confer PMB resistance.
PMB MICs of both A. baumannii strains were determined in commercial CAMHB (BioMérieux, Marcy-l’Etoile, France) according to the European Committee on Antimicrobial Susceptibility Testing and Clinical and Laboratory Standards Institute (CLSI) recommendations ([33], [34]). PMB MICs of the two A. baumannii isolates were also determined at least in duplicate in CAMHB supplemented with 1% of mucin.

CC[C@H](C)CCCCC(=O)N[C@@H](CCN)C(=O)N[C@H](C(=O)N[C@@H](CCN)C(=O)N[C@H]1CCNC(=O)[C@H]([C@@H](C)O)NC(=O)[C@H](CCN)NC(=O)[C@H](CCN)NC(=O)[C@H](CC(C)C)NC(=O)[C@@H](Cc2ccccc2)NC(=O)[C@H](CCN)NC1=O)[C@@H](C)O [PMB, polymyxin B] (X1-[Dab]T[Dab][Dab][Dab][dF]L[Dab][Dab]T; lactam 4-C)
Fold increase of EC50 in the presence of mucin ([1]; 1% mucin vs no mucin, both S and R subpopulations): increased approx. fivefold; also recorded: fivefold increase
Unbound PMB concentration able to prevent bacterial regrowth in TK ([1]; CAMHB + 1% mucin, no concentration in the range tested prevented regrowth): > 304 mg/L
PMB concentrations up to which regrowth was observed in TK after initial CFU decay ([1]; CAMHB without mucin, 30 h): ≤ 128 mg/L
MICu (corrected by fu) ([2]; CAMHB + 1% mucin, unbound MIC = MIC x fu): 13 mg/L
MICu ratio in the presence and absence of mucin ([2]; MIC with 1% mucin corrected by fu): 13
Fold increase of MIC in the presence of 1% mucin compared to CAMHB ([2]; total concentrations): 64 fold
